Broadly, the IC50 is the concentration that gives 50% inhibition.

The values that follow come from patent publication US20250186437A1, “CARBOLINE COMPOUNDS AND USE THEREOF” (PTC Therapeutics, Inc., priority 2021, published 2025).

The experiment deals with MOLM-13 cells. Kind of experiment: MOLM-13 Cell Proliferation Assay (indicator of DHODH inhibition). It counts as cell-based. To be noted: Homo sapiens, 72 Hours of culture, CellTiter-Glo, no uridine. The gist of the method: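 Proliferation readout via CellTiter-Glo luminescence after 72 h compound treatment (37 °C, 5% CO2, 0.5% DMSO) of MOLM-13 cells seeded at 10^4 per well in RPMI 1640/10% FBS, used as a DHODH-inhibition indicator since these cells rely on de novo pyrimidine synthesis.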
In general terms: In ATP-based viability assays light output follows the ATP content of the culture.
The compound `FC1(F)CN(c2ccnc(N3CCc4c([nH]c5ccc(Cl)cc45)[C@@H]3c3cnc(N4CCOCC4)nc3)n2)C1` [Compound 456, (1S)-6-chloro-2-[4-(3,3-difluoroazetidin-1-yl)pyrimidin-2-yl]-1-[2-(morpholin-4-yl)pyrimidin-5-yl]-2,3,4,9-tetrahydro-1H-pyrido[3,4-b]indole] displayed an IC50 of 17.1 nM.
The compound `Cc1nc(N2CC(F)(F)C2)nc(N2CCc3c([nH]c4ccc(Cl)cc34)[C@@H]2c2cnc(N3CCOCC3)nc2)n1` [Compound 457, (1S)-6-chloro-2-[4-(3,3-difluoroazetidin-1-yl)-6-methyl-1,3,5-triazin-2-yl]-1-[2-(morpholin-4-yl)pyrimidin-5-yl]-2,3,4,9-tetrahydro-1H-pyrido[3,4-b]indole] gave an IC50 of 5.8 nM.
`FC(F)(F)c1cnc(N2CCc3c([nH]c4ccc(Cl)cc34)C2c2cnc(N3CCOCC3)nc2)nn1` (stereo not drawn) [Compound 458, 6-chloro-1-[2-(morpholin-4-yl)pyrimidin-5-yl]-2-[6-(trifluoromethyl)-1,2,4-triazin-3-yl]-2,3,4,9-tetrahydro-1H-pyrido[3,4-b]indole] yielded an IC50 of 4.6 nM.
Under `Cc1nc(C)nc(N2CCc3c([nH]c4ccc(Cl)cc34)C2c2ccc(N3CCOCC3)nc2F)n1` (stereo not drawn) [Compound 459, 6-chloro-2-(4,6-dimethyl-1,3,5-triazin-2-yl)-1-[2-fluoro-6-(morpholin-4-yl)pyridin-3-yl]-2,3,4,9-tetrahydro-1H-pyrido[3,4-b]indole] stands 3 nM; under `Cc1ccc([C@H]2c3[nH]c4ccc(Cl)cc4c3CCN2c2ncnc(C(F)(F)F)n2)c(F)c1F` [Compound 461, (1S)-6-chloro-1-(2,3-difluoro-4-methylphenyl)-2-[4-(trifluoromethyl)-1,3,5-triazin-2-yl]-2,3,4,9-tetrahydro-1H-pyrido[3,4-b]indole], 0.8 nM.
With `Cc1ccc([C@H]2c3[nH]c4ccc(Cl)cc4c3CCN2c2ncc(Br)cn2)c(F)c1F` [Compound 463, (1S)-2-(5-bromopyrimidin-2-yl)-6-chloro-1-(2,3-difluoro-4-methylphenyl)-2,3,4,9-tetrahydro-1H-pyrido[3,4-b]indole], half-maximal inhibition (IC50) was put at 1.1 nM.
Under `Cc1nc(N2CCc3c([nH]c4ccc(Cl)cc34)[C@@H]2c2ccc(C)c(F)c2F)nc(C(F)(F)F)n1` [Compound 464, (1S)-6-chloro-1-(2,3-difluoro-4-methylphenyl)-2-[4-methyl-6-(trifluoromethyl)-1,3,5-triazin-2-yl]-2,3,4,9-tetrahydro-1H-pyrido[3,4-b]indole] stands 0.2 nM.
Under `Cc1nc(N2CCc3c([nH]c4ccc(Cl)cc34)[C@@H]2c2ccc(N3CCOCC3)nc2)nc(C(F)(F)F)n1` [Compound 465, (1S)-6-chloro-2-[4-methyl-6-(trifluoromethyl)-1,3,5-triazin-2-yl]-1-[6-(morpholin-4-yl)pyridin-3-yl]-2,3,4,9-tetrahydro-1H-pyrido[3,4-b]indole] stands 0.6 nM; under `Cc1nc(N2CCc3c([nH]c4ccc(Cl)cc34)[C@@H]2c2cnc(N3CCOCC3)nc2)nc(C(F)(F)F)n1` [Compound 466, (1S)-6-chloro-2-[4-methyl-6-(trifluoromethyl)-1,3,5-triazin-2-yl]-1-[2-(morpholin-4-yl)pyrimidin-5-yl]-2,3,4,9-tetrahydro-1H-pyrido[3,4-b]indole], 0.9 nM.
Compound `Cc1ccc([C@H]2c3[nH]c4ccc(Cl)cc4c3CCN2c2nc(C)nc(C(F)(F)F)n2)cc1` [Compound 467, (1S)-6-chloro-1-(4-methylphenyl)-2-[4-methyl-6-(trifluoromethyl)-1,3,5-triazin-2-yl]-2,3,4,9-tetrahydro-1H-pyrido[3,4-b]indole] gave an IC50 of 0.7 nM.
Under `Cc1nc(C)nc(N2CCc3c([nH]c4ccc(Cl)cc34)C2c2ccc(Cl)cc2F)n1` (stereo not drawn) [Compound 468, 6-chloro-1-(4-chloro-2-fluorophenyl)-2-(4,6-dimethyl-1,3,5-triazin-2-yl)-2,3,4,9-tetrahydro-1H-pyrido[3,4-b]indole] stands 5.2 nM; under `Cc1ccc(C2c3[nH]c4ccc(Cl)cc4c3CCN2c2nccc(-c3ccccc3)n2)c(F)c1F` (stereo not drawn) [Compound 469, 6-chloro-1-(2,3-difluoro-4-methylphenyl)-2-(4-phenylpyrimidin-2-yl)-2,3,4,9-tetrahydro-1H-pyrido[3,4-b]indole], 4 nM.
Under `Clc1ccc2[nH]c3c(c2c1)CCN(c1ncc(Br)cn1)[C@H]3c1cnc(N2CCOCC2)nc1` [Compound 470, (1S)-2-(5-bromopyrimidin-2-yl)-6-chloro-1-[2-(morpholin-4-yl)pyrimidin-5-yl]-2,3,4,9-tetrahydro-1H-pyrido[3,4-b]indole] stands 3.1 nM.
`Cc1ccc([C@H]2c3[nH]c4ccc(Cl)cc4c3CCN2c2ncc(-c3ccccc3)cn2)c(F)c1F` [Compound 471, (1S)-6-chloro-1-(2,3-difluoro-4-methylphenyl)-2-(5-phenylpyrimidin-2-yl)-2,3,4,9-tetrahydro-1H-pyrido[3,4-b]indole] yielded an IC50 of 2.5 nM.
`Clc1ccc2[nH]c3c(c2c1)CCN(c1ncc(-c2ccccc2)cn1)[C@H]3c1cnc(N2CCOCC2)nc1` [Compound 472, (1S)-6-chloro-1-[2-(morpholin-4-yl)pyrimidin-5-yl]-2-(5-phenylpyrimidin-2-yl)-2,3,4,9-tetrahydro-1H-pyrido[3,4-b]indole] returned an IC50 of 4.1 nM.
Under `FC(F)(F)c1ccnc(N2CCc3c([nH]c4ccc(Cl)cc34)[C@@H]2c2ccc(N3CCOCC3)nc2)n1` [Compound 473, (1S)-6-chloro-1-[6-(morpholin-4-yl)pyridin-3-yl]-2-[4-(trifluoromethyl)pyrimidin-2-yl]-2,3,4,9-tetrahydro-1H-pyrido[3,4-b]indole] stands 1 nM; under `CSc1nc(N2CCc3c([nH]c4ccc(Cl)cc34)[C@@H]2c2cnc(N3CCN(C)CC3)nc2)nc(C(F)(F)F)n1` [Compound 474, (1S)-6-chloro-1-[2-(4-methylpiperazin-1-yl)pyrimidin-5-yl]-2-[4-(methylsulfanyl)-6-(trifluoromethyl)-1,3,5-triazin-2-yl]-2,3,4,9-tetrahydro-1H-pyrido[3,4-b]indole], 2.1 nM.
Turning to `Clc1ccc2[nH]c3c(c2c1)CCN(c1nccc(-c2ccccc2)n1)C3c1cnc(N2CCOCC2)nc1` (stereo not drawn) [Compound 475, 6-chloro-1-[2-(morpholin-4-yl)pyrimidin-5-yl]-2-(4-phenylpyrimidin-2-yl)-2,3,4,9-tetrahydro-1H-pyrido[3,4-b]indole], the IC50 is 116 nM.
`Cc1ccc([C@H]2c3[nH]c4ccc(Cl)cc4c3CCN2c2nc(F)nc(N3CCN(C)CC3)n2)c(F)c1F` [Compound 476, (1S)-6-chloro-1-(2,3-difluoro-4-methylphenyl)-2-[4-fluoro-6-(4-methylpiperazin-1-yl)-1,3,5-triazin-2-yl]-2,3,4,9-tetrahydro-1H-pyrido[3,4-b]indole] registered an IC50 of 7.6 nM.
Under `Cc1ccc([C@H]2c3[nH]c4ccc(Cl)cc4c3CCN2c2nc(N3CCN(C)CC3)nc(C(F)(F)F)n2)c(F)c1F` [Compound 477, (1S)-6-chloro-1-(2,3-difluoro-4-methylphenyl)-2-[4-(4-methylpiperazin-1-yl)-6-(trifluoromethyl)-1,3,5-triazin-2-yl]-2,3,4,9-tetrahydro-1H-pyrido[3,4-b]indole] stands 1.1 nM; under `CN1CCN(c2nc(N3CCc4c([nH]c5ccc(Cl)cc45)[C@@H]3c3cnc(N4CCOCC4)nc3)nc(C(F)(F)F)n2)CC1` [Compound 478, (1S)-6-chloro-2-[4-(4-methylpiperazin-1-yl)-6-(trifluoromethyl)-1,3,5-triazin-2-yl]-1-[2-(morpholin-4-yl)pyrimidin-5-yl]-2,3,4,9-tetrahydro-1H-pyrido[3,4-b]indole], 9.5 nM; under `CN1CCN(c2ncc([C@H]3c4[nH]c5ccc(Cl)cc5c4CCN3c3nc(N4CCN(C)CC4)nc(C(F)(F)F)n3)cn2)CC1` [Compound 479, (1S)-6-chloro-1-[2-(4-methylpiperazin-1-yl)pyrimidin-5-yl]-2-[4-(4-methylpiperazin-1-yl)-6-(trifluoromethyl)-1,3,5-triazin-2-yl]-2,3,4,9-tetrahydro-1H-pyrido[3,4-b]indole], 66.1 nM.
Under `CN1CCN(c2ccc([C@H]3c4[nH]c5ccc(Cl)cc5c4CCN3c3nccc(C(F)(F)F)n3)cn2)CC1` [Compound 480, (1S)-6-chloro-1-[6-(4-methylpiperazin-1-yl)pyridin-3-yl]-2-[4-(trifluoromethyl)pyrimidin-2-yl]-2,3,4,9-tetrahydro-1H-pyrido[3,4-b]indole] stands 3.2 nM.
Under `CN1CCN(c2ccc([C@H]3c4[nH]c5ccc(Cl)cc5c4CCN3c3nc(C(F)(F)F)cc(C(F)(F)F)n3)cn2)CC1` [Compound 481, (1S)-2-[4,6-bis(trifluoromethyl)pyrimidin-2-yl]-6-chloro-1-[6-(4-methylpiperazin-1-yl)pyridin-3-yl]-2,3,4,9-tetrahydro-1H-pyrido[3,4-b]indole] stands 0.6 nM; under `FC(F)(F)c1cc(C(F)(F)F)nc(N2CCc3c([nH]c4ccc(-n5nccn5)cc34)C2c2cnc(N3CCOCC3)nc2)n1` (stereo not drawn) [Compound 482, 2-[4,6-bis(trifluoromethyl)pyrimidin-2-yl]-1-[2-(morpholin-4-yl)pyrimidin-5-yl]-6-(2H-1,2,3-triazol-2-yl)-2,3,4,9-tetrahydro-1H-pyrido[3,4-b]indole], 0.8 nM; under `Cc1cnn(-c2ccc3[nH]c4c(c3c2)CCN(c2nc(C(F)(F)F)cc(C(F)(F)F)n2)C4c2cnc(N3CCOCC3)nc2)n1` (stereo not drawn) [Compound 483, 2-[4,6-bis(trifluoromethyl)pyrimidin-2-yl]-6-(4-methyl-2H-1,2,3-triazol-2-yl)-1-[2-(morpholin-4-yl)pyrimidin-5-yl]-2,3,4,9-tetrahydro-1H-pyrido[3,4-b]indole], 8.5 nM.
Compound `CN1CCN(c2ncc([C@H]3c4[nH]c5ccc(Cl)cc5c4CCN3c3nccc(C(F)(F)F)n3)cn2)CC1` [Compound 484, (1S)-6-chloro-1-[2-(4-methylpiperazin-1-yl)pyrimidin-5-yl]-2-[4-(trifluoromethyl)pyrimidin-2-yl]-2,3,4,9-tetrahydro-1H-pyrido[3,4-b]indole] registered an IC50 of 2.6 nM.
